Reference: patent US20210299069A1, “PSAMMAPLIN A FOR MODULATING IDO EXPRESSION” (IDOGEN AB, priority 2016, published 2021)

What was measured:
[1] = tested on: collagen-induced arthritis mouse model; test: Treatment of collagen-induced arthritis in vivo; conditions: DBA/1 mice, 10 mg/kg for 4 days from arthritis onset, scores monitored 10 days, vs vehicle
Procedure: DBA/1 mice were immunized with bovine type II collagen emulsified in complete Freund's adjuvant. The mice were treated with psammaplin A (10 mg/kg) for 4 days, starting on the day of arthritis onset. Treatment was then stopped. Negative controls received vehicle alone. Clinical scores were monitored for 10 days following onset of arthritis. A clinical scoring system was used as follows. Arthritis severity was scored by an experienced non-blinded investigator as follows: 0=normal, 1=slight swelling and/or erythema, 2=pronounced swelling, 3=ankylosis. All four limbs were scored, giving a maximum possible score of 12 per animal.
The procedure under “Treatment of collagen-induced arthritis in vivo” was followed.
Disease severity was evaluated daily and the mean clinical score of each treatment group was determined. The data points on the graph in FIG. 2 are the mean±SEM of the mice in each treatment.

[2] = molecular target: hepatitis C virus NS3 helicase (Hepatitis C virus genotype 1a, UniProt P27958); conditions: dose-response relationship, cited from earlier work
[3] = tested on: colon (HCT15) cancer cell line; conditions: cited from earlier work
[4] = tested on: CNS (XF498) cancer cell line; conditions: cited from earlier work
[5] = tested on: IDO1 expression in THP-1 cells; test: Induction of IDO1 in THP-1 cells (RT-qPCR); format: cell-based, human; conditions: for IDO1 expression (fold change): 96 hours, vs DMSO control
Procedure: THP-1 cells were harvested from appropriate number of T75 flasks. Cells were counted in a Bürker chamber, stained with 0.4% Trypan Blue. The appropriate number of cells for each experiment were transferred to a new tube and centrifuged at 1200 rpm, 5 min at room temperature (RT). The supernatant was discarded and fresh RPMI with 5% FBS was added to get a cell concentration of 2×10^5 cells/mL. The compound was added to the five separate wells in 6-well plates such that five different final concentrations were obtained after adding the cells. A control was added to one well in the 6-well plate to which cells were added. 1×10^6 cells per well were seeded out to achieve a total volume of 5 mL per well. The cells were incubated at 37° C. in 5% CO2 for 96 hours. After 96 hours the assay was stopped and the cells were lysed for the isolation of RNA.
Total RNA was extracted from THP-1 cells using the RNA RNeasy Mini extraction kit (Qiagen), according to the manufacturer's instructions. A SuperScript® VILO™ RT-kit (Thermo Fisher) was used to reverse transcribe 1 μg of total RNA to cDNA and qPCR was performed. The primers used for amplification of the human IDO1 gene were 5″-[…]-3″ (forward; SEQ ID No. 1) and 5″-[…]-3″ (reverse; SEQ ID No. 2). The primers used for amplification of the endogenous reference gene for human HPRT1 were 5″-[…]-3″ (forward; SEQ ID No. 3) and 5″-[…]-3″ (reverse; SEQ ID No. 4). In brief, RT-qPCR was performed in 20 μl reaction, consisting 10 μl PowerUp SYBR Green Master Mix, 0.5 μM of each primer, 4 μl diluted cDNA for amplification of IDO1 and 1.5 μl diluted cDNA for amplification of HPRT1. An iCycler iQ real-time detection system (Stratagene, Mx3000P, La Jolla, Calif., USA) with the following thermal profile: UDG incubation at 50° C. for 2 min, then denaturation at 95° C. for 5 min, followed by 45 cycles at 94° C. for 15 s, 58° C. for 30 s, and 60° C. for 30 s, was used to perform thermocycling and real-time detection of PCR products. After amplification a melting curve analysis was performed. The RT-qPCR experiments were always run in triplicate. IDO1 was normalised to the geometric means of two HPRT1 reference gene, using the ΔCt method. Within-group comparisons were normalized to one control sample, using the ΔΔCt method.
The procedure under “Induction of IDO1 in THP-1 cells” was followed such that the final concentrations set out in Table 1 were obtained.
Following RNA extraction and quantification of gene expression by RT-qPRC, as described above, induction of IDO1 gene expression using Samples 1 to 6 was investigated.

[6] = tested on: skin (SK-MEL-2) cancer cell line; conditions: cited from earlier work
[7] = tested on: ovarian (SK-OV-3) cancer cell line; conditions: cited from earlier work
[8] = tested on: naïve CD4+ CD25− T cells; test: Conversion of CD4+CD25− T cells into CD4+FoxP3+ Tregs in vitro; format: cell-based
Procedure: To assess the effect of psammaplin A on the generation of Tregs, naïve CD4+ CD25− T cells were cultured with mitomycin C treated APCs plus IL-2, TGFβ and anti-CD3 in the presence or absence of psammaplin A and numbers of CD4^+ FoxP3^+ Tregs were determined by FACS after 72 h. The RNA was isolated from cell lysate, and reverse transcribed to cDNA for RT-qPCR analysis using Taqman primer probes. Expression of genes encoding Foxp3 was normalized to HPRT expression and was calibrated relative to vehicle group.
The procedure under “Conversion of CD4+CD25− T cells into CD4+FoxP3+ Tregs in vitro” was followed. The frequencies of CD4+FoxP3+ Tregs were determined by FACS after 72 h (FIG. 3A and 3B).

[9] = tested on: human lung (A549) cancer cell line; conditions: cited from earlier work
[10] = tested on: methicillin-resistant Staphylococcus aureus (MRSA); conditions: gram-positive bacteria, in particular MRSA; cited from earlier work

Chain of hepatitis C virus NS3 helicase (P27958 1027-1657): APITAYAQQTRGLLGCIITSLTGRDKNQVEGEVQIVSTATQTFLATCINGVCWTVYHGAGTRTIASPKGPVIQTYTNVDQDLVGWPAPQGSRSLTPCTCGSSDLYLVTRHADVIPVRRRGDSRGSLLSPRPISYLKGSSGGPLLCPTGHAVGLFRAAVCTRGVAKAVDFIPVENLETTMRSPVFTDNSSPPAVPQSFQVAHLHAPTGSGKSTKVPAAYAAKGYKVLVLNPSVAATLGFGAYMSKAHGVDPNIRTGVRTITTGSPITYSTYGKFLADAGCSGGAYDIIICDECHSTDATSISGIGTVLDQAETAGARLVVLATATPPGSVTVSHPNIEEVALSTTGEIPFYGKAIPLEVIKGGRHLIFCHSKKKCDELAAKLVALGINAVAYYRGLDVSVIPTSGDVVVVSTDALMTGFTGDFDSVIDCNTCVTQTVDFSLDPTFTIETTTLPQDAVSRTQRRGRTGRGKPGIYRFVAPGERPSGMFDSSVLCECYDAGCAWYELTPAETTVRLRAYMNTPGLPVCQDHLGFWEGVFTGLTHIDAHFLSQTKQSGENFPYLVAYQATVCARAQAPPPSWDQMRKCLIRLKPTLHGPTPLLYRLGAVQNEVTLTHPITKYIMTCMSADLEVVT

O=C(NCCSSCCNC(=O)/C(Cc1ccc(O)c(Br)c1)=N/O)/C(Cc1ccc(O)c(Br)c1)=N/O [psammaplin A]
disease severity (mean clinical score) [1]: successful in reducing disease severity | NS3 ATPase activity inhibition [2]: inhibits NS3 helicase and ATPase activities | NS3 helicase activity inhibition ([2]; non-competitive): inhibits NS3 helicase | cytotoxicity [3]: significant cytotoxicity | cytotoxicity [4]: significant cytotoxicity | IDO1 expression (fold change) ([5]; 0.05 micromolar): 0.9 fold change | IDO1 expression (fold change) ([5]; 0.1 micromolar): 0.6 fold change | IDO1 expression (fold change) ([5]; 1 micromolar): 0.9 fold change | IDO1 expression (fold change) ([5]; 3 micromolar): 4.5 fold change | IDO1 expression (fold change) ([5]; 5 micromolar): 20 fold change | increase of IDO1 gene expression (maximum) ([5]; psammaplin A alone, highest level at 5 micromolar): up to 20 fold | cytotoxicity [6]: significant cytotoxicity | cytotoxicity [7]: significant cytotoxicity | frequencies of CD4+FoxP3+ Tregs (FACS) ([8]; co-culture with mitomycin C treated APCs plus IL-2, TGFβ and anti-CD3, 72 h, vs control (nil)): increased in a dose-dependent manner | relative expression of the Foxp3 gene (RT-qPCR) ([8]; normalized to HPRT, relative to vehicle group (nil)): increased in a dose-dependent manner | cytotoxicity [9]: significant cytotoxicity | antimicrobial effect [10]: antimicrobial effect
